Laboratory results reported in article PMC12040169 (PLOS Biology, 2025).

Assay: in vitro
Details: human, hela cells, % viability

Row | Structure (SMILES) | viability at 28.5 h, 10 µM [%]
1 | CC(O)c1nc2ccc(Cl)cc2[nH]1 (stereo not drawn) [CBK115573] | 102
2 | c1cncc(C2N3CCC4(CC3)c3[nH]c5ccccc5c3CCN24)c1 (stereo not drawn) [CBK284430] | 92.8
3 | CCC(Oc1cccc(Cl)c1)C(=O)NN1CCN(C)CC1 (stereo not drawn) [CBK268135] | 116
4 | O=C(CN(c1ccc(I)cc1)S(=O)(=O)c1ccccc1)NCC1CCCO1 (stereo not drawn) [CBK266278] | 101
5 | COC(=O)c1c(NC(=S)Nn2cnnc2)sc2c1CCC(C)C2 (stereo not drawn) [CBK266942] | 91.6
6 | O=C(CSc1nnc(-c2ccco2)n1Cc1ccco1)c1ccc(-c2ccccc2)cc1 [CBK267555] | 91.1
7 | Cc1cc(NS(=O)(=O)c2ccc(NC(=O)/C=C/c3ccc(C)o3)cc2)nc(C)n1 [CBK265474] | 96.5
8 | N#Cc1ccc(CN2CCCN(S(=O)(=O)c3ccc(C(F)(F)F)cc3Cl)CC2)cc1 [CBK062939] | 98
9 | CCn1c(=O)n(CC(=O)N(C(C)C)C(C)C)c2cccnc21 [CBK283943] | 100
10 | Fc1ccc(-c2n[nH]c(=S)n2CCCN2CCOCC2)cc1 [CBK267127] | 100
11 | Cc1cc(NC(=O)CN2CCC(CSc3ccccc3)C2)no1 (stereo not drawn) [CBK306136] | 92.4
12 | CC(=O)c1c(C)n(O)c2ccc(Cl)cc2c1=O [CBK217746] | 107
13 | Cc1cc(C)[n+]2c(n1)N(c1ccccc1)CC2 [CBK017327G] | 80.7
14 | CCCn1c(C)cc2cc(NC(=O)Cn3ccnc3)ccc21 [CBK281549] | 92.4
15 | CC(C)(C)c1cc(C(=O)Nc2ccncc2)n(Cc2ccc(Cl)cc2Cl)n1 [CBK107284] | 107
16 | O=C1NC2(CCCCCC2)C(=O)N1Cc1coc(-c2cccs2)n1 [CBK305858] | 94.2
17 | O=C(COc1ccc(S(=O)(=O)N2CCc3ccccc32)cc1Cl)NCc1ccco1 [CBK268293] | 102
18 | O=C(COc1ccc(C(=O)c2ccc(F)cc2)cc1)c1ccc2c(c1)OCCO2 [CBK297536] | 111
19 | COc1ccc(Oc2cncc(OC3CCN(CCc4ccc(F)cc4)C3)n2)cc1OC (stereo not drawn) [CBK084409] | 94.1
20 | O=C(Nc1cc(Cl)ccc1Cl)C1CN(S(=O)(=O)c2ccccc2)CCN1S(=O)(=O)c1ccccc1 (stereo not drawn) [CBK267004] | 88.7
21 | O=[N+]([O-])c1cc(S(=O)(=O)Nc2nnc(C(F)(F)F)s2)ccc1Cl [CBK062021] | 105

Row | Structure (SMILES) | viability at 28.5 h, 10 µM [%]
22 | O=C1Nc2cc(Cl)ccc2C2=NCCCN12 [CBK284385] | 81.5
23 | COc1ccc(C(=O)[C@H]2CCCN(C(=O)C3CC3)C2)cc1 [CBK284329] | 91.4
24 | COc1ccc2[nH]c3c(c2c1)CCOC31CCN(C(=O)N[C@@H](C)c2ccccc2)CC1 [CBK047114] | 98.5
25 | CCC(CC)C(=O)N(C)c1c(C)nc2c(OCC(=O)c3ccc(F)cc3)cccn12 [CBK147239] | 113
26 | COc1ccc2[nH]cc(CC(=O)NCc3ccc(-c4csnn4)cc3)c2c1 [CBK149313] | 82.7
27 | Cc1ccc(N(CC(O)CNC23CC4CC(CC(C4)C2)C3)S(=O)(=O)c2ccccc2)cc1 (stereo not drawn) [CBK264741] | 110
28 | CCN1CCCN(c2cc(OCc3ccc(Cl)c(Cl)c3)ncn2)CC1 [CBK083786] | 92.3
29 | O=[N+]([O-])c1cc(-c2nnc(-c3ccccc3)o2)ccc1-n1c(-c2ccccc2)nnc1-c1ccccc1 [CBK267341] | 99.2
30 | O=C(Nc1ccc(-c2ccccc2)cc1)c1cccc(S(=O)(=O)NCC2CCCO2)c1 (stereo not drawn) [CBK296994] | 95.7
31 | O=C(CC1CCN(C(=O)CC2CCCCC2)CC1)Nc1ccccc1CN1CCCC1 [CBK286046] | 100
32 | CCc1nn(CC(=O)N2CCCCC2C)c(=O)c2cc3occc3n12 (stereo not drawn) [CBK283676] | 67.5
33 | NS(=O)(=O)c1ccc(Nc2nc(-c3ccccc3)c(CC(=O)O)s2)cc1 [CBK131899] | 91.6
34 | O=S(=O)(NCCN1CCOCC1)c1ccc(Cl)c(Cl)c1Cl [CBK264973] | 109
35 | CCCS(=O)(=O)Nc1nccnc1-c1cccs1 [CBK050763] | 89.4
36 | O=C(Nc1ccc(C(F)(F)F)cc1)C1CCCS1 (stereo not drawn) [CBK006142] | 92.5
37 | Cc1cc(CNC(=O)C(C)n2cnc3ccccc32)on1 (stereo not drawn) [CBK282196] | 90.7
38 | CNC(=O)C1(Cc2ccc(-c3cccs3)cc2)CCN(C(=O)C2CCCCC2)CC1 [CBK285793] | 88
39 | O=C(CSCc1cccc(Cl)c1)Nc1cccnc1 [CBK264114] | 95.9
40 | O=C(O)CSc1nc2ccc([N+](=O)[O-])cc2[nH]1 [CBK265192] | 86.9
41 | Cc1nn(-c2ccccc2)c2sncc12 [CBK006869] | 109
42 | COc1ccc(-c2cnc(N)c(NCC(C)(C)CO)n2)c(OC)c1OC [CBK063542] | 103

Row | Structure (SMILES) | viability at 28.5 h, 10 µM [%]
43 | COc1ccc(/C=C(/NC(=O)c2cccc(Cl)c2)C(=O)Nc2ccccc2)cc1 [CBK263342] | 107
44 | CCN1C(=O)C2(CC(=O)N(CCc3cccc(OC)c3)C2=O)c2cc(C)ccc21 (stereo not drawn) [CBK075195] | 96.7
45 | S=c1[nH]nc(COc2ccc(Cl)cc2Cl)[nH]1 [CBK288511] | 80.3
46 | Cc1ccc2c(c1)c(-c1ccccc1)c(-c1ccccc1)n2CC(O)Cn1cnc(-c2ccccc2)c1-c1ccccc1 (stereo not drawn) [CBK262531] | 72.7
47 | COc1cc(C(=O)Nc2ccccc2C(=O)N2CCN(C)CC2)cc(OC)c1OC [CBK269803] | 88.5
48 | CCc1nn(CC(=O)NC2CCCC2)c(=O)c2cc3sccc3n12 [CBK284077] | 84
49 | Fc1ccc(-c2cccc(N3CCN(c4ccccn4)CC3)n2)cc1Cl [CBK036877] | 104
50 | CC(C)(C)c1cc(C(=O)NCC2CCCN2)n(Cc2ccc(Cl)cc2Cl)n1 (stereo not drawn) [CBK115920C] | 96.1
51 | CC1=CC(C)C2C(=O)N(c3ccc(C(=O)O)cc3)C(=O)C2C1 (stereo not drawn) [CBK286923] | 87
52 | COc1cccc2c1ncc1c(=O)nc(N)sc12 [CBK291241] | 88.9
53 | CC(=O)NCCOc1nccnc1OCc1ccc(Cl)c(Cl)c1 [CBK161582] | 96.4
54 | O=C(O)c1ccccc1-c1ccccc1C(=O)Nc1cccc(-c2nc3ccccc3o2)c1 [CBK262767] | 103
55 | O=C(O)CCc1cccnc1 [CBK175283] | 92.2
56 | Cc1ccc2nc(-c3ccc(NC(=O)CSc4nnc(C)s4)cc3)sc2c1 [CBK266185] | 92.5
57 | CCC1CCCCN1C(=O)c1cccc(C(=O)OC)c1 (stereo not drawn) [CBK083195] | 109
58 | CN(C)CCNc1nc(-c2cccnc2)nc2ccccc12 [CBK264471C] | 99.7
59 | O=S(=O)(NCCc1csc(-c2cccnc2)n1)c1cccnc1 [CBK287546] | 91.8
60 | COc1ccccc1CC(C)NC(=O)c1cc(C2CC2)nn1C (stereo not drawn) [CBK283290] | 83.8
61 | CCC(C)c1ccc(NC(S)=NCc2ccccn2)cc1 (stereo not drawn) [CBK266966] | 89.2
62 | NNC(=O)c1cc(O)n[nH]1 [CBK262669] | 106
63 | CC(C)(c1ccccc1)c1ccc(OCCOc2ccc(/C=C3\SC(=S)NC3=O)cc2)cc1 [CBK264378] | 91

Row | Structure (SMILES) | viability at 28.5 h, 10 µM [%]
64 | CCOC(=O)CNc1nc(OC)cc(OC)n1 [CBK093392] | 86.7
65 | c1ccc2c(OCc3nc4c5c6c(sc5ncn4n3)CCCCC6)cccc2c1 [CBK264151] | 99.6
66 | FC(F)(F)c1cccc(-c2cn3ccnc3c(NCCc3ccccn3)n2)c1 [CBK066491] | 95.4
67 | O=C1CC(C(=O)N2CCN(c3ncccn3)CC2)c2ccccc21 (stereo not drawn) [CBK144505] | 99.2
68 | CC(C)[C@@H](N)C(=O)N1CC[C@@H]2NC(=O)[C@@H](Cc3ccccc3)NC(=O)C3(C/C=C/C[C@H]2C1)CCOCC3 [CBK292201] | 112
69 | N#C/C(=C\c1cn(CCC(N)=O)c2ccccc12)c1nc2ccccc2[nH]1 [CBK267966] | 104
70 | COC1C(O)C(CO)OC1n1cc(F)c(Oc2c(C)cc(C)cc2C)nc1=O (stereo not drawn) [CBK201279] | 98.2
71 | N#Cc1cccc(NC(=O)NC[C@H]2C[C@@H]3CC[N@]2C[C@@H]3CN2CCCCC2)c1 [CBK288765] | 99.5
72 | COc1cc(Nc2nc(-c3ccccc3F)cn3ccnc23)cc(OC)c1OC [CBK037301] | 98.9
73 | O=C(CN1CCC(C(=O)NC(c2ccccc2)c2ccsc2)CC1)c1ccc(F)cc1 (stereo not drawn) [CBK148432] | 86.9
74 | O=S(=O)(Nc1ccc2[nH]ccc2c1)c1cc(C(F)(F)F)cc(C(F)(F)F)c1 [CBK156330] | 102
75 | CCc1nc2n(n1)CC(NC1CCCc3ccccc31)CC2 (stereo not drawn) [CBK304837] | 95.6
76 | N#Cc1cccnc1N1CC2COCCC2(C(=O)N2CCC=C(F)C2)C1 (stereo not drawn) [CBK304744] | 91.5
77 | c1ccc(CN2CCN(Cc3ccccc3)C2c2ccc[nH]2)cc1 [CBK261283] | 82.9
78 | Cc1ccc(NC(=O)CSCc2nc3ccccc3[nH]2)cc1 [CBK267299] | 108
79 | COc1ccc(CN(Cc2ccc(NC(C)=O)cc2)[C@@H]2COC[C@H]2c2ccc(F)cc2)cc1 [CBK286488] | 105
80 | COC(=O)c1ccc(/C=C/C2=CCN(C)CC2)cc1 [CBK283744] | 94.5
81 | O=C(c1cnccn1)N1CCN(c2nc3c(F)cccc3s2)CC1 [CBK287722] | 91.6
82 | CCc1noc(C)c1C(=O)NCC1CCCCN1CC (stereo not drawn) [CBK282201] | 97.3
83 | COc1cc(F)cc(OC2CCNCC2)c1NC(=O)/C=C/c1cccnc1 [CBK050344T] | 103
84 | COc1ccc(C(=O)C2=C(O)C(=O)N(CCN3CCOCC3)C2c2ccc(O)c(OC)c2)c(C)c1 (stereo not drawn) [CBK264858] | 88

Same assay, conditions: human, hela cells, % viability, bulk resorufin, single well

Row | Structure (SMILES) | viability at 28.5 h, 10 µM [%]
85 | N#CC1(c2ccccc2)CCN(C(=O)c2ccc(S(N)(=O)=O)cc2)CC1 [CBK091397] | 96.5
86 | O=C1NC(=O)N(Cc2ccccc2)C(=O)/C1=C\NC(CO)(CO)CO [CBK264431] | 104
87 | CCOC(=O)N1CCC2(CC1)Oc1ccc(-c3cc(OC)c(OC)c(OC)c3)cc1O2 [CBK090282] | 90.9
